Structures are written as SMILES. Residues, ends and D or L forms follow the SMILES beside them.

For the first assay, the target named is T1, ΔCTD_Reg1 (amino acids 1 to 546 of human Regnase-1) phosphorylation by TBK1 (Homo sapiens, UniProt Q5D1E8).
T1 construct: made in house; host or cells: Expi293 cells
T1 sequence (Q5D1E8 1-546): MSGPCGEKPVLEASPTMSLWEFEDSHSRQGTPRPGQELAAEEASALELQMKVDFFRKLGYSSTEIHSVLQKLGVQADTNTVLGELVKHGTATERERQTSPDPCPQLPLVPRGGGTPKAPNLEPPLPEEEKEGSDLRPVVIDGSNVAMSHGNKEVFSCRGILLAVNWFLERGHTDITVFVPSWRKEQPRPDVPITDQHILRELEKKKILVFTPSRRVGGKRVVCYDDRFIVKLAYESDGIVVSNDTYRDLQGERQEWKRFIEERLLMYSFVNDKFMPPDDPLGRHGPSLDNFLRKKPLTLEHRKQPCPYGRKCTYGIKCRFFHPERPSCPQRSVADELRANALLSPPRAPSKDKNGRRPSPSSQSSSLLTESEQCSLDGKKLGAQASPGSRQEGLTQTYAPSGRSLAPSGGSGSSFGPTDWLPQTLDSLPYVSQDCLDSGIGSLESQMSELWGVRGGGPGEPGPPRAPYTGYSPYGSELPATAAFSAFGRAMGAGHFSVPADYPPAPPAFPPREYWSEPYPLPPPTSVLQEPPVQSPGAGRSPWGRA
In words: Regnase-1 phosphorylation inhibition by compounds (AlphaScreen), TBK1, CTD-deficient Regnase-1. Particulars: Table 11; 2 nM Regnase-1; AlphaScreen; read-out: 50% inhibition concentration, Regnase-1 phosphorylation, ΔCTD_Reg1, TBK1. It is filed as biochemical. The source says:
The full-length sequence of human Regnase-1 (UniProt ID: Q5D1E8) was used to prepare a construct having a FLAG tag on the N-terminal side and a recognition sequence for biotin ligase BirA on the C-terminal side (FL_Reg1) as a target protein. The above-mentioned Regnase-1 was expressed in mammalian Expi293 cells, purified with FLAG M2 agarose, and isolated by gel filtration chromatography. When biotinylation was required, methods from nonpatent documents (BMC biotechnology, 2008,8,41; and Protein Science, 1999,8,921-929) were used.
(§1) Among the full-length human Regnase-1 sequence, the 1st to 546th amino acid sequence was prepared and made into a construct having a FLAG tag on the N-terminal side and a biotin ligase BirA recognition sequence on the C-terminal side (herein, a Regnase-1 lacking the C-terminal domain of Regnase-1 (amino acids 547 to 599 in the case of SEQ ID NO: 2) is referred to as “ΔCTD_Reg1”. “ΔCTD_Reg1” is different from “Regnase-1ΔCTD”, which is a C-terminal domain deletion variant resulting from a frameshift mutation caused by a 1 bp deletion at codon 517, as prepared in Example 13). In addition, the sequence from amino acids 301 to 599 of the full-length human Regnase-1 sequence was designated as C-terminal Regnase-1, and a construct having a FLAG tag on the N-terminal side and a recognition sequence for biotin ligase BirA on the C-terminal side was prepared (Reg1_301-599). The above-mentioned Regnase-1 was expressed in mammalian Expi293 cells, purified with FLAG M2 agarose, and isolated by gel filtration chromatography. When biotinylation was required, methods of nonpatent documents (BMC biotechnology, 2008,8,41; and Protein Science, 1999,8,921-929) were used.
(§2) Using Kinase assay buffer III (manufactured by SignalChem) supplemented with 2 mM DTT, 100 μM sodium vanadate, and 2 mM manganese chloride, kinase (IKKβ (manufactured by SignalChem) or TBK1 (manufactured by SignalChem)) and Regnase-1 were reacted in the presence of 10 μM ATP at room temperature for 2 hours to perform a phosphorylation reaction.
(§3) Phosphorylated Regnase-1 was detected by the AlphaScreen system. After each of the above-mentioned phosphorylated Regnase-1 antibodies was added and reacted at room temperature for one hour, anti-FLAG AlphaLISA Acceptor Beads (manufactured by PerkinElmer) and Protein A AlphaScreen Donor Beads (manufactured by PerkinElmer) were added, and EnVision (manufactured by PerkinElmer) was used to measure the excited luminescence. As a result, phosphorylated Regnase-1 produced by the phosphorylation reaction by kinase was specifically detected, and signals were confirmed to be enhanced in a manner dependent on Regnase-1 and kinase concentrations (FIG. 24).
(§4) After mixing 2 nM of the above-mentioned Regnase-1 and the compound, phosphorylated Regnase-1 produced by the phosphorylation reaction was detected by the AlphaScreen system. As the results, the inhibition rate was calculated from the signals obtained when adding the compound at each concentration, by defining the signal obtained with Regnase-1 alone to be 100% inhibition rate, and the signal obtained when the same amount of solvent (DMSO) is added in place of the compound as 0% inhibition rate. The 50% inhibition concentration (μM) was calculated from the obtained dose response curve (Table 11).
For orientation: Bead proximity is the source of the signal in Alpha formats.
In the case of `CC[C@H](C)[C@@H]1NC(=O)[C@H](CCCCN)NC(=O)[C@H](Cc2ccccc2)NC(=O)[C@H](Cc2c[nH]c3ccccc23)NC(=O)[C@H](CO)NC(=O)[C@H](CO)NC(=O)[C@H](CC(N)=O)NC(=O)[C@@H]2CCCN2C(=O)[C@@H](C)N(C)C(=O)C[C@@H](C(=O)N2CCCC2)NC(=O)[C@H](Cc2c[nH]c3ccccc23)NC1=O` [PP6] (HELM PEPTIDE1{[C[C@H](C(=O)[*:2])N(C)[*:1]].P.N.S.S.W.F.K.I.W.D.[C1CCN([*:1])C1]}$PEPTIDE1,PEPTIDE1,1:R1-11:R3$$$V2.0), the IC50 stood at 14.5 µM.
On to `CC[C@H](C)[C@@H]1NC(=O)[C@H](Cc2ccc(O)cc2)NC(=O)[C@H](C)N(C)C(=O)C[C@@H](C(=O)N2CCCC2)NC(=O)[C@H](CC(C)C)NC(=O)[C@H](CC(=O)O)NC(=O)CNC(=O)[C@H](Cc2ccccc2)NC(=O)[C@H](Cc2ccccc2)NC(=O)[C@H](CC(=O)O)NC(=O)[C@H](Cc2c[nH]c3ccccc23)NC1=O` [PP4] (HELM PEPTIDE1{[meA].Y.I.W.D.F.F.G.D.L.D.[C1CCN([*:1])C1]}$PEPTIDE1,PEPTIDE1,1:R1-11:R3$$$V2.0), for which the IC50 stood at 44.9 µM.
As to `CC[C@H](C)[C@@H]1NC(=O)[C@H](CC(N)=O)NC(=O)[C@H](Cc2ccc(O)cc2)NC(=O)[C@H](Cc2c[nH]c3ccccc23)NC(=O)[C@H](C)NC(=O)[C@H](CC(N)=O)NC(=O)[C@H](CO)NC(=O)[C@H](Cc2c[nH]cn2)NC(=O)[C@H](C)N(C)C(=O)C[C@@H](C(=O)N2CCCC2)NC(=O)[C@H](Cc2c[nH]c3ccccc23)NC1=O` [PP5] (HELM PEPTIDE1{[meA].H.S.N.A.W.Y.N.I.W.D.[C1CCN([*:1])C1]}$PEPTIDE1,PEPTIDE1,1:R1-11:R3$$$V2.0), the IC50 amounted to 19.1 µM.
On to `CC[C@H](C)[C@@H]1NC(=O)[C@H](CC(N)=O)NC(=O)[C@H](Cc2ccc(O)cc2)NC(=O)[C@H](Cc2c[nH]c3ccccc23)NC(=O)[C@H](CO)NC(=O)[C@H](CC(N)=O)NC(=O)[C@H](C)NC(=O)[C@H](Cc2ccc(O)cc2)NC(=O)CNC(=O)[C@H](C)N(C)C(=O)C[C@@H](C(=O)N2CCCC2)NC(=O)[C@H](Cc2c[nH]c3ccccc23)NC1=O` [PP2] (HELM PEPTIDE1{[meA].G.Y.A.N.S.W.Y.N.I.W.D.[C1CCN([*:1])C1]}$PEPTIDE1,PEPTIDE1,1:R1-12:R3$$$V2.0), for which the IC50 stood at 17.6 µM.

The assay is the same for the next values; noted with them: Table 13; phosphorylation by TBK1; read-out: Phosphorylation inhibition ΔCTD_Reg1, 50% inhibition concentration (TBK1).
Consider `CC[C@H](C)[C@@H]1NC(=O)[C@H](CCCCN)NC(=O)[C@H](Cc2ccc(O)cc2)NC(=O)[C@H](Cc2ccccc2)NC(=O)[C@H](C(C)C)NC(=O)[C@H](C)N(C)C(=O)C[C@@H](C(=O)N2CCCC2)NC(=O)[C@H](Cc2c[nH]c3ccccc23)NC(=O)[C@H](CC(N)=O)NC(=O)[C@H](Cc2ccc(O)cc2)NC(=O)[C@H](Cc2c[nH]c3ccccc23)NC1=O` [PP19] (HELM PEPTIDE1{[meA].V.F.Y.K.I.W.Y.N.W.D.[C1CCN([*:1])C1]}$PEPTIDE1,PEPTIDE1,1:R1-11:R3$$$V2.0), for which the IC50 was 4.6 µM.

In a further assay the target is T2, Reg1_301-599 (amino acids 301-599 of human Regnase-1) phosphorylation by TBK1 (Homo sapiens, UniProt Q5D1E8).
T2 construct: made in house; host or cells: Expi293 cells
T2 sequence (Q5D1E8 301-599): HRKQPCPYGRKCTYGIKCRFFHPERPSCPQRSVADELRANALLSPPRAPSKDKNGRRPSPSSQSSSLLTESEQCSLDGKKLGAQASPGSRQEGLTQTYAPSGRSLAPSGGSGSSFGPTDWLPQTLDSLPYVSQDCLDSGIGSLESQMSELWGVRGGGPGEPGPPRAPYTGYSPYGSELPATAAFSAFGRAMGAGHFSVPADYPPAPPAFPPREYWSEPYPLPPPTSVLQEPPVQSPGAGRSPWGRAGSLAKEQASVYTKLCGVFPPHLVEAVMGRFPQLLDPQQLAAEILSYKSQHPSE
As to the kind of experiment: Regnase-1 phosphorylation inhibition by compounds (AlphaScreen), TBK1, C-terminal Regnase-1. To be noted: Table 13, read-out: Phosphorylation inhibition Reg1_301-599, 50% inhibition concentration (TBK1). It is filed as biochemical. Here is the method:
as §1, §2, §3, §4
As for `CC[C@H](C)[C@@H]1NC(=O)[C@H](CCCCN)NC(=O)[C@H](Cc2ccc(O)cc2)NC(=O)[C@H](Cc2ccccc2)NC(=O)[C@H](C(C)C)NC(=O)[C@H](C)N(C)C(=O)C[C@@H](C(=O)N2CCCC2)NC(=O)[C@H](Cc2c[nH]c3ccccc23)NC(=O)[C@H](CC(N)=O)NC(=O)[C@H](Cc2ccc(O)cc2)NC(=O)[C@H](Cc2c[nH]c3ccccc23)NC1=O` [PP19] (HELM PEPTIDE1{[meA].V.F.Y.K.I.W.Y.N.W.D.[C1CCN([*:1])C1]}$PEPTIDE1,PEPTIDE1,1:R1-11:R3$$$V2.0), the IC50 was found to be 5.8 µM.

Source of the values: patent publication US20250018014A1, “METHOD FOR TREATING AND/OR PREVENTING REGNASE-1-RELATED DISEASE” (OSAKA UNIVERSITY, priority 2018, published 2025).
